A short description of this data set: Stability of polymorphs: competitive slurry of both forms, polymorphic form determined by high throughput pXRD. The data set is classed as physicochemical. The method, then: Equal amounts of the polymorph of the invention and the Reference Form A polymorph were stirred in 33% methylcyclohexane/xylene for 4 days at a range of temperatures: 6° C., 35° C., 40° C. and 52° C. After the 4 days, the crystals were isolated and dried and their polymorphic form determined by high throughput pXRD. […] As such, formulations of the polymorph of the invention made and stored at up to 52° C. will be unlikely to show unwanted crystal growth.

As to `CCOC(=O)OC1=C(c2c(C)cc(Cl)cc2C)C(=O)N(C)C12CCN(OC)CC2` [Reference Form A], the “characteristic pXRD reflections in the isolated crystals” value (equal amounts of both polymorphs stirred in 33% methylcyclohexane/xylene for 4 days, all temperatures (6° C., 35° C., 40° C., 52° C.)) was “absent”. `CCOC(=O)OC1=C(c2c(C)cc(Cl)cc2C)C(=O)N(C)C12CCN(OC)CC2` [polymorph of the invention]: under “equal amounts of both polymorphs stirred in 33% methylcyclohexane/xylene for 4 days at 6° C., 35° C., 40° C. and 52° C., crystals isolated, dried, pXRD”, the stable polymorphic form entry is given as “the stable form over the temperature range studied”.

These data come from patent US12172999B2, “Polymorphs” (SYNGENTA PARTICIPATIONS AG, priority 2016, dated 2024).
